The record followed here is US5432172A, “Biological applications of alkaloids derived from the tunicate Eudistoma sp” (The Research Foundation of State University of New York, priority 1993, dated 1995).

Experiment [1] concerns rat anterior pituitary cells. The experiment in a line: Secretion of growth hormone (GH) from dispersed rat anterior pituitary cells. The class given is cell-based. The settings on record: 3 h; increasing concentrations. The source says:
FIG. 13 is a graph showing the effects of Debromoshermilamine on the secretion of growth hormone (GH) from dispersed rat anterior pituitary cells. Each bar represents the mean ±s.e.m of four wells.
3. Growth hormone release from anterior pituitary cells which is stimulated by a number of hormonal factors that activate the adenylyl cyclase system and elevate cellular cAMP levels, see, Bilezikjian et al., Endocrinology, 113, 1726-1731 (1983); Ray et al., Mol. Cell. Endocrinology, 45, 175-182 (1986) and Gabriel et al., Neuroendocrinology, 50 170-176 (1989).
FIG. 13 is a graph showing the effects of debromoshermilamine on the secretion of growth hormone (GH) from dispersed rat anterior pituitary cells. Cells grown in 24-well multiwell plates were incubated for 3 h in fresh medium (DME) in the absence (control) or presence of 1 mM DbcAMP, and increasing concentrations of Debromoshermilamine as indicated. Hormone secretion was measured using rat GH radioimmunoassay. Each bar represents the mean ±s.e.m of four wells.

Experiment [2] relates to normal hamster fibroblast NIL8 cell line. The experiment in a line: Growth and morphology of normal NIL8 fibroblast cells. The class given is cell-based. Particulars: 12.8 μM Debromoshermilamine, 5 days, single application. On the procedure: Cells were grown for 5 days in the absence of drugs (A), and in the presence of 25 μM forskolin (B), 1.4 μM Eilatin (C), or 12.8 μM Debromoshermilamine (D). […]
As illustrated, a single application of 1.4 μM Eilatin or 12.8 μM Debromoshermilamine to NIL8 cells produced effects which are strikingly similar to those obtained by chronically treating time cells with agents that elevate or mimic cAMP. […] This predilection towards cancer cells is a very desirable property in developing potential drugs for the treatment of cancer.

A further experiment has as its system PEPCK mRNA. The experiment in a line: Levels of PEPCK mRNA in FTO-2B rat hepatoma cells (Northern blot). It counts as cell-based. Particulars: segoline A 5, 26 and 52 μM; Debromoshermilamine 2.6, 12.8 and 38.4 μM; 4 hours. On the procedure:
FIG. 12 is a graph showing the effects of Eudistoma alkaloids on levels of PEPCK mRNA in FTO-2B rat hepatoma cells. The cells were exposed for 4 hours to serum-free medium which contained: 5 μM CPT-cAMP (lane 1), 5, 26 and 52 μM segoline A (lanes 2-4), 2.6, 12.8 and 38.4 μM Debromoshermilamine (lanes 5-7) or to serum-free medium alone (lane 8).
2. Induction of mRNA for P-enolpyruvate carboxykinase (PEPCK)--a key enzyme in the gluconeogenesis pathway in liver and kidney cells whose gene transcription rate is stimulated by cAMP see Hod et al., N.Y. Acad. Sci., 478, 31-45 (1986) and Hod et an., J. Biol. Chem., 263, 7747-7752 (1988).
FIG. 12 is a graph showing the effects of Eudistoma alkaloids on levels of PEPCK mRNA in FTO-2B rat hepatoma cells. The cells were exposed to medium which contained: 5 μM 8-CPT-cAMP, 5, 26 and 52 μM Segoline A, 2.6, 12.8 and 38.4 μM Debromoshermilamine or to control medium. The level of mRNA was determined by Northern blot analysis according to Hod et al., J. Biol. Chem., 259, 15603-15608 (1984) using the plasmid pPCK10rc as a hybridization probe, and quantified by densitometric scanning of the autoradiograms which is shown on the left.

The test system of experiment [3] is neuroblastoma N1E-115 cells. The experiment in a line: Growth and morphological differentiation of mouse neuroblastoma N1E-115 cells. Particulars: for range of effective concentrations that inhibited cell proliferation and induced morphological differentiation / effects on cell appearance: N1E-115 cells; for range of effective concentrations that inhibited cell proliferation and induced morphological differentiation: below range no noticeable effect, above range cytotoxic; for effects on cell appearance: morphology; for most effective concentration for the cells tested: summary, cells tested in the present invention. The procedure: A,B: Untreated cells, 3 (A) and 8 (B) days after subculture. C,D: Cells grown for 3 (C) and 8 (D) days with 12.8 μM Debromoshermilamine. E,F: Cells grown for 7 days with Isosegoline A (39 μM) and Norsegoline (16.3 μM), respectively.
A,B: Untreated cells 3 (A) and 6 (B) days after subculture. C,D: Cells grown for 3 (C) and 6 (D) days with 50 μM forskolin. E,F: Cells grown for 3 (E) and 6 (F) days with 39 μM Segoline A. G,H: Cells grown for 3 (G) and 6 (H) days with 0.14 μM Eilatin.
Cells were grown for six days in the absence of drugs (A), or in the presence of: 10 μM 4-methylpyrido[2,3,4-kl]acridine (B), 4 μM pyrido[2,3,4-kl]acridine (C), 0.08 μM Eilatin (D), 75 μM forskolin (E).
The inventors chose the neuroblastoma N1E-115 cells because these tumor-derived cells can be induced to express characteristic neuronal properties by a variety of procedures see Spector, "Electrophysiology of clonal nerve cell lines. In: Excitable Cells in Tissue Culture", Nelson et al. eds., Plenum, New York 247-277 (1981) and can serve as a useful experimental system in which to explore the effects of the Eudistoma alkaloids on the biological properties of both cancer cells and neuronal cells.
The N1E-115 cells were exposed to various concentrations of the six (6) natural products shown in FIG. 1, and of the two synthetic pyridoacridines shown in Scheme III of FIG. 2. […] A,B: Untreated cells, 3 (A) and 8 (B) days after subculture. C,D: Cells grown for 3 (C) and (8) days with 12.8 μM Debromoshermilamine. E,F: Cells grown for 7 days with Isosegoline A (39 μM) and Norsegoline (16.3 μM), respectively. FIG. 5 illustrates the appearance of N1E-115 cells 6 days after replating in the absence (A) and in the presence of 10 μM 4-methylpyrido[2,3,4-kl]acridine (B), or 4 μM pyrido[2,3,4-kl]acridine.

The test system of the next experiment is pyruvate kinase. Description: Pyruvate kinase activity in cultured rat hepatoma FAO cells. The class given is cell-based. The settings on record: for Km: control 0.14, read-out: Km for the substrate phosphoenolpyruvate (PEP); for inhibition of pyruvate kinase activity: submaximal substrate concentrations; for rise in the Km for substrate (phosphoenolpyruvate): versus control. On the procedure:
FIG. 11 is a graph showing the effects of the Eudistoma alkaloids on pyruvate kinase activity in cultured rat hepatoma FAO cells. Enzyme activity v/Vmax was assayed as described in Example IV in partially purified extracts from cells incubated for 1 h in the absence ( ) or presence of 100 μM CPT-cAMP (.cndot.) and 26 μM segoline A ( ) as a function of substrate concentrations (phosphoenolpyruvate, PEP).
1. Activity of pyruvate kinase--a key glycolytic enzyme whose activity is inhibited by cAMP-dependent phosphorylation.
FIG. 11 is a graph showing the effects of the Eudistoma alkaloids on pyruvate kinase activity in cultured rat hepatoma FAO cells. Enzyme activity v/Vmax was assayed in partially purified extracts from cells incubated for 1 h in the absence (squares) or presence of 100 μM 8-(4-chlorophenylthio) cyclic AMP (CPT-cAMP)-CPT-cAMP (circles) and 26 μM Segoline A (triangles) as a function of substrate concentrations (phosphoenolpyruvate, PEP).

SMILES strings stand for the structures. Where two headings read alike, the source gives them in different places.

Take `CC(=O)NCCc1c2c(c3nccc4c3c1Nc1ccccc1-4)NC(=O)CS2` [Debromoshermilamine]: the growth hormone release entry in experiment [1] is listed as “stimulate growth hormone release, again, in a dose-dependent manner”. For the same molecule, in experiment [2], the “effect on cell shape of NIL8 cells” value is reported as “flatter” and the “effect on growth of NIL8 cells” value was “growth was inhibited”. The “induction of PEPCK mRNA” value in the experiment with PEPCK mRNA is listed as “stimulate the induction of PEPCK mRNA in a dose-dependent manner”. In experiment [3], the “range of effective concentrations that inhibited cell proliferation and induced morphological differentiation” value was 6-32 μM; the “effects on cell appearance” value was “a large proportion of very flat cells of considerable size and relatively few neurites”; the “most effective concentration for the cells tested” value fell in the range of 6 to 32 µM. Moreover, the Km in the experiment with pyruvate kinase (concentration of alkaloid not given) came to 460 µM. In the experiment with pyruvate kinase, the “inhibition of pyruvate kinase activity” value is listed as “inhibit pyruvate kinase activity” and the “rise in the Km for substrate (phosphoenolpyruvate)” value is “ca. 3 fold”.
As for `COc1cc2c3c4c(ccnc14)-c1ccccc1N3C1(C)C(=O)NC(=O)C2C1C` (stereo not shown) [Segoline A], the “induction of PEPCK mRNA” value in the experiment on PEPCK mRNA was “stimulate the induction of PEPCK mRNA in a dose-dependent manner”. The “effect on cell division and morphological differentiation” value in experiment [3] (39 μM Segoline A, 3 days, single application) is “inhibited cell division and induced morphological differentiation”. Also, the “long-term effect on cell division” value in experiment [3] (39 μM Segoline A, 6 days, single application) is listed as “cell division is completely blocked”. Moreover, in experiment [3], the “range of effective concentrations that inhibited cell proliferation and induced morphological differentiation” value was 12-52 μM; the “effects on cell appearance” value is “flattened cell bodies as well as numerous long neurites”; the “most effective concentration for the cells tested” value lay within 12 to 52 µM. Also, the Km in the experiment on pyruvate kinase (26 μM segoline A, 1 h) came out at 440 µM. In the experiment on pyruvate kinase, the “inhibition of pyruvate kinase activity” value is “inhibit pyruvate kinase activity” and the “rise in the Km for substrate (phosphoenolpyruvate)” value is recorded as “ca. 3 fold”.
